In publication PMC7845594, “Novel Immune Modulators Enhance Caenorhabditis elegans Resistance to Multiple Pathogens” (mSphere, 2021):

Key:
[1] = tested on: glp-4(bn2) worms exposed to methicillin-resistant S. aureus strain MRSA131; assay: S. aureus infection assay (liquid); type: in vivo, Caenorhabditis elegans; conditions: glp-4(bn2) worms, 96 h; ± 95% confidence interval
Description: Enterococcus faecalis and Staphylococcus aureus are Gram-positive bacterial species frequently responsible for nosocomial infections ([24], [25]). These bacterial species readily infect C. elegans and liquid-based pathogenesis models have been developed for each ([26][–][28]). Sterile, young adult glp-4(bn2) worms were incubated with either E. faecalis or S. aureus and various concentrations of the five compounds. […] Importantly, P. aeruginosa, E. faecalis, and S. aureus use very different mechanisms to kill C. elegans (pyoverdine-mediated mitochondrial damage, gelatinase-mediated damage to the colonized intestine, and multi-toxin-mediated intestinal effacement and damage, respectively) ([29][–][33]). The ability of these compounds to rescue against multiple pathogens that utilize a diverse set of virulence factors and mechanisms of pathogenesis further supports the idea that at least a portion of these compounds’ activity is mediated by stimulating innate immunity.
FIG 2 A subset of LK molecules rescue against E. faecalis and S. aureus. […] Compounds were serially diluted 2-fold, and young adult glp-4(bn2) worms were incubated with the pathogen for 80 h (E. faecalis) or 96 h (S. aureus). The concentrations shown are based on the mean value for at least three replicates. (B and C) Percentages of dead C. elegans after exposure to E. faecalis (B) or S. aureus (C). A representative biological replicate is shown. Each condition included at least six wells per replicate, each well contained approximately 20 worms. Three biological replicates were performed. *, P < 0.05; **, P < 0.01; ***, P < 0.001. P values were calculated using Student’s t test. Error bars represent the standard error of the mean.
The S. aureus killing assay was performed as previously described with some changes ([26]). A single colony was used to inoculate a 5-ml aerobic culture of TSB. The following day, 100 µl of this culture was used to inoculate a second 10 ml of TSB culture wrapped with parafilm. Then, 384-well plates were made containing 10% TSB, and S. aureus from the second culture was resuspended in S Basal medium to a final OD of 0.04. Compounds were then serially diluted in a DMSO-S Basal solution to achieve the desired concentration in the wells with a 1% DMSO final concentration for all compounds. After 5 days, the worms were transferred to new plates using a 0.05% Tween solution to prevent S. aureus biofilm background fluorescence from obscuring dead worms. Subsequent washing, staining, imaging, and image analysis were performed identically to Pseudomonas liquid killing. EC values were defined as the minimum concentration that provided statistically significant rescue. At least three biological replicates were performed.

glp-4(bn2) worms = assay: Longevity (life span) assay; conditions: 50 μM in NGM, E. coli OP50, Fig 3A
Description: To test the long-term toxicity of the hit compounds, life span assays were carried out by placing sterile, young adult glp-4(bn2) worms on NGM (standard nematode growth media, defined in Materials and Methods) seeded with Escherichia coli OP50. […] Sterile worms were used to eliminate the need to transfer worms between plates during life span assays, and we elected to use glp-4(bn2) to induce sterility instead of using wild-type worms sterilized with 5-fluoro-2′-deoxyuridine (FUDR) because the interaction of the compounds could generate artifacts during the long course of life span experiments.
Worms were scored daily by prodding. […] The viability was normalized to a DMSO solvent control. […] Error bars represent standard error of the mean.
Worms were picked onto agar plates seeded with 50 µl of concentrated E. coli OP50. Compounds were added to liquid agar before pouring plates. Worms were scored every day for death by prodding with a platinum wire. Worms that escaped the plate or died on the wall of the plate were censored. Each compound was tested in at least three biological replicates, each including 50 to 70 worms.

[2] = tested on: C. elegans host defense pathway genes; assay: nanoString expression of 115 immune- and stress-responsive genes; conditions: 100 μM LK molecules, 16 h
Description: The ratio of MIC to EC was determined for each of the 69 compounds.
Analysis of the expression of 115 immune- and stress-responsive genes using nanoString technology. Download Table S1, XLSX file, 0.02 MB.
For nanoString-based (nanoString Technologies, Seattle, WA) experiments, 2,000 wild-type, young adult worms were exposed to 100 μM LK molecules or DMSO control in S Basal medium in 6-well plates for 16 h. RNA purification and gene expression analysis were performed according to nanoString guidelines. Two biological replicates were tested for each condition.

Structure (SMILES): CCN(CC)/N=N/c1ccc(C(=O)O)cc1 [LK35]
- S. aureus EC [1]: > 64 µM
- TD50 (time to 50% death), life span (glp-4(bn2) worms): 7.7 days
- B0024.4 expression, induction [2]: 0.69 fold
- C02B4.2 nhr-17 expression, induction [2]: 4.68 fold
- C06B3.7 expression, induction [2]: 4.95 fold
- C07G3.2 irg-1 expression, induction [2]: 2.81 fold
- C12C8.1 hsp-70 expression, induction [2]: 9.31 fold
- C15F1.7 sod-1 expression, induction [2]: 1.69 fold
- C29F7.2 expression, induction [2]: 7.54 fold
- C31A11.5 oac-6 expression, induction [2]: 4.61 fold
- C32D5.12 expression, induction [2]: 0.39 fold
- C32H11.1 expression, induction [2]: 0.93 fold
- C32H11.3 expression, induction [2]: 2.10 fold
- C34G6.4 pgp-2 expression, induction [2]: 8.04 fold
- C37C3.10 expression, induction [2]: 68.75 fold
- C37H5.8 hsp-6 expression, induction [2]: 4.54 fold
- C49G7.5 irg-2 expression, induction [2]: 14.15 fold
- F08F8.5 numr-1 expression, induction [2]: 26.12 fold
- F08H9.4 expression, induction [2]: 14.14 fold
- F14F9.3 expression, induction [2]: 17.12 fold
- F22B5.4 expression, induction [2]: 0.69 fold
- F22H10.2 expression, induction [2]: 2.36 fold
- F26A3.4 expression, induction [2]: 1.28 fold
- F35E8.11 cdr-1 expression, induction [2]: 87.64 fold
- F35G2.4 phy-2 expression, induction [2]: 1.60 fold
- F37B12.2 gcs-1 expression, induction [2]: 12.12 fold
- F43E2.8 hsp-4 expression, induction [2]: 31.03 fold
- F44E5.5 expression, induction [2]: 8.59 fold
- F49F1.6 expression, induction [2]: 2.32 fold
- F49F1.7 expression, induction [2]: 2.34 fold
- F49H6.13 expression, induction [2]: 18.14 fold
- F54B8.4 expression, induction [2]: 4.73 fold
- F55G11.2 expression, induction [2]: 2.21 fold
- F59A7.1 clec-206 expression, induction [2]: 9.10 fold
- F59B10.4 expression, induction [2]: 4.48 fold
- H12D21.1 nspa-1 expression, induction [2]: 36.00 fold
- H23N18.1 ugt-13 expression, induction [2]: 10.66 fold
- H23N18.3 ugt-8 expression, induction [2]: 9.55 fold
- K05B2.4 expression, induction [2]: 14.78 fold
- K08F4.7 gst-4 expression, induction [2]: 12.53 fold
- K09A9.1 nipi-3 expression, induction [2]: 4.14 fold
- K10D11.2 expression, induction [2]: 11.43 fold
- K10G4.3 expression, induction [2]: 5.63 fold
- R03D7.6 gst-5 expression, induction [2]: 144.12 fold
- R08H2.1 dhs-23 expression, induction [2]: 121.17 fold
- R10E8.3 expression, induction [2]: 5.61 fold
- T19D12.3 expression, induction [2]: 88.57 fold
- T19H12.1 ugt-9 expression, induction [2]: 6.78 fold
- T21E8.1 pgp-6 expression, induction [2]: 2.39 fold
- T22B7.3 expression, induction [2]: 7.07 fold
- T24C4.4 expression, induction [2]: 4.80 fold
- T24E12.5 expression, induction [2]: 34.94 fold
- T27E4.3 hsp-16.48 expression, induction [2]: 10.63 fold
- T27E4.8 hsp-16.1 expression, induction [2]: 10.52 fold
- T27F6.8 expression, induction [2]: 3.60 fold
- T28C12.4 expression, induction [2]: 9.37 fold
- W02D9.10 expression, induction [2]: 7.18 fold
- Y22D7AL.5 hsp-60 expression, induction [2]: 2.52 fold
- Y38E10A.15 nspe-7 expression, induction [2]: 3.39 fold
- Y46H3A.2 hsp-16.41 expression, induction [2]: 6.06 fold
- Y46H3A.3 hsp-16.2 expression, induction [2]: 6.32 fold
- Y56A3A.33 expression, induction [2]: 3.94 fold
- Y58A7A.5 expression, induction [2]: 9.18 fold
- ZC376.7 atfs-1 expression, induction [2]: 3.43 fold
- ZC443.6 ugt-16 expression, induction [2]: 25.67 fold
- ZK697.6 gst-21 expression, induction [2]: 2.35 fold
